Data published in PubChem BioAssay (NCI).
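These data come from cells grown in 96-well plates and exposed to compound for 48 hours at five concentrations. The concentration for 50% growth inhibition is given as GI50. At the TGI there is no net growth.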

These molecules were tested on DMS 273 small cell lung (assay: NCI tumour cell line growth inhibition, 48 h).
C=CC1(C)CC(=O)C2(O)C(C)(O1)C(OC(C)=O)C(O)C1C(C)(C)CCC(O)C12C (stereo not drawn) was tested, and the TGI was > 150 µM.
In the case of CN1Cc2c(nc(-c3ccccc3)c[n+]2[O-])N(C)C1, the TGI was > 100 µM.
In the case of O[C@H]1[C@H](O)[C@@H](O)CN2CC[C@H](O)[C@H]12, the TGI was > 100 µM.
Work on COc1cc(C2c3cc4c(cc3[C@@H](Nc3ccccc3)C3COC(=O)[C@H]23)OCO4)cc(OC)c1O (stereo partly drawn) yielded a TGI of 3.35 µM.
O=C1NC(O)CCN1C1OC(CO)C(O)C1O (stereo not drawn) was tested, and the TGI was > 250 µM.
With O=C(NN1C(=O)CS(=O)(=O)C1c1ccc(C(F)(F)F)cc1)c1ccncc1 (stereo not drawn) the TGI was > 100 µM.
In the case of COc1ccc(CC(N)=O)cc1OC, the TGI was > 1250 µM.
CCOC(=O)CNC(=O)NC12CC3CC(CC(C3)C1)C2 was tested, and the TGI was > 550 µM.
In the case of O=C(NCCCl)O/N=C/c1cccnc1, the TGI was > 100 µM.

Each molecule was assayed on XF 498 CNS (assay: NCI tumour cell line growth inhibition, 48 h).
In the case of C=CC1(C)CC(=O)C2(O)C(C)(O1)C(OC(C)=O)C(O)C1C(C)(C)CCC(O)C12C (stereo not drawn), the TGI was 142 µM.
In the case of CN1Cc2c(nc(-c3ccccc3)c[n+]2[O-])N(C)C1, the TGI was > 100 µM.
With C=C(CN(C)C)C(=O)c1ccc(C(=O)C(=C)CN(C)C)cc1 the TGI was > 100 µM.
O[C@H]1[C@H](O)[C@@H](O)CN2CC[C@H](O)[C@H]12 was tested, and the TGI was > 100 µM.
For COc1cc(C2c3cc4c(cc3[C@@H](Nc3ccccc3)C3COC(=O)[C@H]23)OCO4)cc(OC)c1O (stereo partly drawn), the TGI was 7.84 µM.
In the case of O=C1NC(O)CCN1C1OC(CO)C(O)C1O (stereo not drawn), the TGI was > 250 µM.
O=C(NN1C(=O)CS(=O)(=O)C1c1ccc(C(F)(F)F)cc1)c1ccncc1 (stereo not drawn) was tested, and the TGI was > 100 µM.
COc1ccc(CC(N)=O)cc1OC was tested, and the TGI was > 1250 µM.
With CCOC(=O)CNC(=O)NC12CC3CC(CC(C3)C1)C2 the TGI was 246 µM.
In the case of O=C(NCCCl)O/N=C/c1cccnc1, the TGI was > 100 µM.

The molecules below were run on LXFL 529 NSCLC (assay: NCI tumour cell line growth inhibition, 48 h).
In the case of CN1Cc2c(nc(-c3ccccc3)c[n+]2[O-])N(C)C1, the TGI was > 100 µM.
For C=C(CN(C)C)C(=O)c1ccc(C(=O)C(=C)CN(C)C)cc1, the TGI was > 100 µM.
For O=C(NN1C(=O)CS(=O)(=O)C1c1ccc(C(F)(F)F)cc1)c1ccncc1 (stereo not drawn), the TGI was > 100 µM.

Each molecule was assayed on P388/ADR leukemia (assay: NCI tumour cell line growth inhibition, 48 h).
For C=CC1(C)CC(=O)C2(O)C(C)(O1)C(OC(C)=O)C(O)C1C(C)(C)CCC(O)C12C (stereo not drawn), the TGI was > 84.4 µM.
For O[C@H]1[C@H](O)[C@@H](O)CN2CC[C@H](O)[C@H]12, the TGI was > 100 µM.
With COc1cc(C2c3cc4c(cc3[C@@H](Nc3ccccc3)C3COC(=O)[C@H]23)OCO4)cc(OC)c1O (stereo partly drawn) the TGI was 4.59 µM.
With O=C1NC(O)CCN1C1OC(CO)C(O)C1O (stereo not drawn) the TGI was > 250 µM.
For COc1ccc(CC(N)=O)cc1OC, the TGI was > 1250 µM.
For CCOC(=O)CNC(=O)NC12CC3CC(CC(C3)C1)C2, the TGI was > 550 µM.
For O=C(NCCCl)O/N=C/c1cccnc1, the TGI was > 100 µM.

Each molecule was assayed on SNB-78 CNS (assay: NCI tumour cell line growth inhibition, 48 h).
In the case of C=CC1(C)CC(=O)C2(O)C(C)(O1)C(OC(C)=O)C(O)C1C(C)(C)CCC(O)C12C (stereo not drawn), the TGI was > 150 µM.
CN1Cc2c(nc(-c3ccccc3)c[n+]2[O-])N(C)C1 was tested, and the TGI was > 100 µM.
In the case of O[C@H]1[C@H](O)[C@@H](O)CN2CC[C@H](O)[C@H]12, the TGI was > 100 µM.
For COc1cc(C2c3cc4c(cc3[C@@H](Nc3ccccc3)C3COC(=O)[C@H]23)OCO4)cc(OC)c1O (stereo partly drawn), the TGI was > 91 µM.
In the case of O=C1NC(O)CCN1C1OC(CO)C(O)C1O (stereo not drawn), the TGI was > 250 µM.
O=C(NN1C(=O)CS(=O)(=O)C1c1ccc(C(F)(F)F)cc1)c1ccncc1 (stereo not drawn) was tested, and the TGI was > 100 µM.
With COc1ccc(CC(N)=O)cc1OC the TGI was > 1250 µM.
With CCOC(=O)CNC(=O)NC12CC3CC(CC(C3)C1)C2 the TGI was > 520 µM.
With O=C(NCCCl)O/N=C/c1cccnc1 the GI50 was > 100 µM and the TGI was > 100 µM.

Each molecule was assayed on P388 leukemia (assay: NCI tumour cell line growth inhibition, 48 h).
With C=CC1(C)CC(=O)C2(O)C(C)(O1)C(OC(C)=O)C(O)C1C(C)(C)CCC(O)C12C (stereo not drawn) the TGI was > 150 µM.
In the case of O[C@H]1[C@H](O)[C@@H](O)CN2CC[C@H](O)[C@H]12, the TGI was > 100 µM.
COc1cc(C2c3cc4c(cc3[C@@H](Nc3ccccc3)C3COC(=O)[C@H]23)OCO4)cc(OC)c1O (stereo partly drawn) showed a TGI of 2.35 µM.
For O=C1NC(O)CCN1C1OC(CO)C(O)C1O (stereo not drawn), the TGI was > 250 µM.
With COc1ccc(CC(N)=O)cc1OC the TGI was > 1250 µM.
For CCOC(=O)CNC(=O)NC12CC3CC(CC(C3)C1)C2, the TGI was 430 µM.

What follows are molecules tested on DMS 114 small cell lung (assay: NCI tumour cell line growth inhibition, 48 h).
C=CC1(C)CC(=O)C2(O)C(C)(O1)C(OC(C)=O)C(O)C1C(C)(C)CCC(O)C12C (stereo not drawn) was tested, and the GI50 was > 71.6 µM and the TGI was > 108 µM.
In the case of CN1Cc2c(nc(-c3ccccc3)c[n+]2[O-])N(C)C1, the TGI was > 100 µM.
O[C@H]1[C@H](O)[C@@H](O)CN2CC[C@H](O)[C@H]12 was tested, and the TGI was > 100 µM.
Work on COc1cc(C2c3cc4c(cc3[C@@H](Nc3ccccc3)C3COC(=O)[C@H]23)OCO4)cc(OC)c1O (stereo partly drawn) yielded a TGI of 3.42 µM.
With O=C1NC(O)CCN1C1OC(CO)C(O)C1O (stereo not drawn) the TGI was > 250 µM.
In the case of O=C(NN1C(=O)CS(=O)(=O)C1c1ccc(C(F)(F)F)cc1)c1ccncc1 (stereo not drawn), the TGI was > 100 µM.
COc1ccc(CC(N)=O)cc1OC was tested, and the TGI was > 1250 µM.
With CCOC(=O)CNC(=O)NC12CC3CC(CC(C3)C1)C2 the TGI was > 511 µM.
In the case of O=C(NCCCl)O/N=C/c1cccnc1, the TGI was > 100 µM.

What follows are molecules tested on RXF-631 renal (assay: NCI tumour cell line growth inhibition, 48 h).
With CN1Cc2c(nc(-c3ccccc3)c[n+]2[O-])N(C)C1 the TGI was > 100 µM.

The molecules below were run on DLD-1 colon (assay: NCI tumour cell line growth inhibition, 48 h).
In the case of C=CC1(C)CC(=O)C2(O)C(C)(O1)C(OC(C)=O)C(O)C1C(C)(C)CCC(O)C12C (stereo not drawn), the TGI was > 150 µM.
With CN1Cc2c(nc(-c3ccccc3)c[n+]2[O-])N(C)C1 the TGI was > 100 µM.
C=C(CN(C)C)C(=O)c1ccc(C(=O)C(=C)CN(C)C)cc1 was tested, and the TGI was > 100 µM.
O[C@H]1[C@H](O)[C@@H](O)CN2CC[C@H](O)[C@H]12 was tested, and the TGI was > 100 µM.
COc1cc(C2c3cc4c(cc3[C@@H](Nc3ccccc3)C3COC(=O)[C@H]23)OCO4)cc(OC)c1O (stereo partly drawn) gave a TGI of 6.64 µM.
In the case of O=C1NC(O)CCN1C1OC(CO)C(O)C1O (stereo not drawn), the TGI was > 250 µM.
For O=C(NN1C(=O)CS(=O)(=O)C1c1ccc(C(F)(F)F)cc1)c1ccncc1 (stereo not drawn), the TGI was > 100 µM.
COc1ccc(CC(N)=O)cc1OC was tested, and the TGI was > 1250 µM.
With CCOC(=O)CNC(=O)NC12CC3CC(CC(C3)C1)C2 the TGI was > 87.2 µM.
For O=C(NCCCl)O/N=C/c1cccnc1, the TGI was > 100 µM.

The molecules below were run on SN12K1 renal (assay: NCI tumour cell line growth inhibition, 48 h).
For C=CC1(C)CC(=O)C2(O)C(C)(O1)C(OC(C)=O)C(O)C1C(C)(C)CCC(O)C12C (stereo not drawn), the TGI was > 150 µM.
With O[C@H]1[C@H](O)[C@@H](O)CN2CC[C@H](O)[C@H]12 the TGI was > 100 µM.
With COc1cc(C2c3cc4c(cc3[C@@H](Nc3ccccc3)C3COC(=O)[C@H]23)OCO4)cc(OC)c1O (stereo partly drawn) the TGI was 8.65 µM.
O=C1NC(O)CCN1C1OC(CO)C(O)C1O (stereo not drawn) was tested, and the TGI was > 250 µM.
For COc1ccc(CC(N)=O)cc1OC, the TGI was > 1250 µM.
Molecule CCOC(=O)CNC(=O)NC12CC3CC(CC(C3)C1)C2 has a TGI of 503 µM.
For O=C(NCCCl)O/N=C/c1cccnc1, the TGI was > 100 µM.
